Experimental data as given in ChEMBL document CHEMBL1149970, “Novel dithiocarbamate carbapenems1 with anti-MRSA activity” (Bioorg Med Chem Lett, 1997).
≈ marks a conversion by molar mass, not a printed value.

Assays:
[1] = target: T1, Dipeptidase 1 (Sus scrofa) (UniProt P22412); test: Relative rate of hydrolysis of porcine renal dehydropeptidase-I (DHP-I) to imipenem; format: functional
T1 sequence (whole entry): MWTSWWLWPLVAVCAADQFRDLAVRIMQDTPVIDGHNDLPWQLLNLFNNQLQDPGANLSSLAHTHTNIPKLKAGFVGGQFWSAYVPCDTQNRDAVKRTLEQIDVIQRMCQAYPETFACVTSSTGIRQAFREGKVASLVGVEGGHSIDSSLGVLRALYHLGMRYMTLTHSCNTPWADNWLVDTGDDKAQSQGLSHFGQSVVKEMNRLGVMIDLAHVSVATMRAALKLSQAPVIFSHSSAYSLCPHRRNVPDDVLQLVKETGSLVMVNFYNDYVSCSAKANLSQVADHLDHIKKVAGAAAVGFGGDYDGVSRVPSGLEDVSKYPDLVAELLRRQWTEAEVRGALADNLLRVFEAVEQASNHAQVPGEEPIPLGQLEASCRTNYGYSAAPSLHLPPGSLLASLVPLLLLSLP

[2] = tested on: Enterococcus faecalis; test: In vitro antibacterial activity against Enterococcus faecalis MB4996 organism; format: functional
[3] = tested on: Escherichia coli; test: In vitro antibacterial activity against Escherichia coli NIHJ JC2 organism; format: functional
[4] = tested on: Pseudomonas aeruginosa; test: In vitro antibacterial activity against Pseudomonas aeruginosa MB5002 organism; format: functional
[5] = tested on: Staphylococcus epidermidis; test: In vitro antibacterial activity against Staphylococcus epidermidis MB5181a organism; format: functional
[6] = tested on: Staphylococcus aureus; test: In vitro antibacterial activity against staphylococcus aureus 209P NIHJ JC1 organism; format: functional
[7] = tested on: Staphylococcus aureus; test: In vitro antibacterial activity against staphylococcus aureus BB6294 organism (Methicillin-resistant strain); format: functional
[8] = tested on: Staphylococcus aureus; test: In vitro antibacterial activity against staphylococcus aureus CSa1009 (Methicillin-resistant strain and b beta-Lactamase producing strain); format: functional
[9] = Compound was measured for binding rate for human serum at a carbapenem concentration of 10 ug/mL; format: ADME; settings: read-out: Protein binding (converted)
[10] = target: T1, Dipeptidase 1 (Sus scrofa); test: Compound was measured for DHP-I susceptibility; format: functional
[11] = organism: Mus musculus; test: Compound was measured for binding rate for mouse serum at a carbapenem concentration of 10 ug/mL; format: functional
[12] = PBP-2'' affinity was determined by the competition assay with [14C]benzylpenicillin using membrane isolated from MRSA BB6294 strain; format: functional, Staphylococcus aureus
[13] = tested on: Rattus norvegicus; test: Epileptogenicity of compound was measured at 100 ug/rat head by the rat intraventricular assay; 0/5; format: functional, Cerebral ventricle
[14] = tested on: Staphylococcus aureus; test: Compound was tested in vivo for its anti-methicillin-resistant staphylococcus aureus(MRSA); format: functional
[15] = tested on: Staphylococcus aureus; test: Compound was tested in vitro for its anti-methicillin-resistant staphylococcus aureus(MRSA); 3.13-6.25; format: functional
[16] = tested on: Rattus norvegicus; test: Epileptogenicity of compound was measured at 100 ug/rat head by the rat intraventricular assay; 1/5; format: functional
[17] = Staphylococcus epidermidis, read-out: MIC

Row | SMILES | DHP-I susceptibility [1] | MIC [2] [µg/mL] | MIC [3] [µg/mL] | MIC [4] [µg/mL] | MIC [5, 17] [µg/mL] | MIC [6] [µg/mL] | MIC [7] [µg/mL] | MIC [8] [µg/mL] | fraction unbound at 10 ug/mL [9] | DHP-I susceptibility [10] | PPB [11] [%] | IC50 [12] [µg/mL] | Epileptogenicity [13] | ED50 [14] [mg/kg] | MIC [15] [µg/mL] | Epileptogenicity [16] | MIC [5] [pug ml-1]
1 | C[C@@H](O)[C@H]1C(=O)N2C(C(=O)O)=C(SC(=S)N(C)c3ccccc3)[C@H](C)[C@H]12 | 2.29 | 6.25 (≈ 15.9 µM) | > 25 | > 25 | 1.56 (≈ 3.97 µM) | 0.05 (≈ 0.127 µM) | 1.56 (≈ 3.97 µM) | 3.13 (≈ 7.97 µM) | – | – | – | – | – | – | – | – | –
2 | C[C@@H](O)[C@H]1C(=O)N2C(C(=O)O)=C(SC(=S)N3CC(O)C3)[C@H](C)[C@H]12 | 2.32 | 12.5 (≈ 34.9 µM) | 0.78 (≈ 2.18 µM) | > 25 | 3.13 (≈ 8.73 µM) | 0.025 (≈ 0.0697 µM) | 6.25 (≈ 17.4 µM) | 6.25 (≈ 17.4 µM) | – | – | – | – | – | – | – | – | –
3 | C[C@@H](O)[C@H]1C(=O)N2C(C(=O)O)=C(SC(=S)N(C)CCO)[C@H](C)[C@H]12 | 1.36 | 6.25 (≈ 17.3 µM) | 0.78 (≈ 2.16 µM) | > 25 | 6.25 (≈ 17.3 µM) | 0.025 (≈ 0.0694 µM) | 3.13 (≈ 8.68 µM) | 6.25 (≈ 17.3 µM) | 0.53 | 1.33 | 58 | 3.8 (≈ 10.5 µM) | 0 | 4.8 | 4.36 (≈ 12.1 µM) | – | –
4 | C[C@@H](O)[C@H]1C(=O)N2C(C(=O)[O-])=C(SC(=S)N3CC[N+](C)(C)CC3)[C@H](C)[C@H]12 | 0.11 | 1.56 (≈ 3.9 µM) | 0.1 (≈ 0.25 µM) | > 25 | 3.13 (≈ 7.83 µM) | 0.012 (≈ 0.03 µM) | 3.13 (≈ 7.83 µM) | 12.5 (≈ 31.3 µM) | – | – | – | – | – | – | – | – | –
5 | C[C@@H](O)[C@H]1C(=O)N2C(C(=O)O)=C(SC(=S)N3CCC(O)CC3)[C@H](C)[C@H]12 | 2.23 | 6.25 (≈ 16.2 µM) | 3.13 (≈ 8.1 µM) | > 25 | 6.25 (≈ 16.2 µM) | 0.025 (≈ 0.0647 µM) | 6.25 (≈ 16.2 µM) | 6.25 (≈ 16.2 µM) | – | – | – | – | – | – | – | – | –
6 | C[C@@H](O)[C@H]1C(=O)N2C(C(=O)O)=C(SC(=O)N3CCCC3)[C@H](C)[C@H]12 | 0.65 | – | – | – | 25 (≈ 73.4 µM) | 0.05 (≈ 0.147 µM) | 25 (≈ 73.4 µM) | 25 (≈ 73.4 µM) | – | – | – | – | – | – | – | – | –
7 | C[C@@H](O)[C@H]1C(=O)N2C(C(=O)O)=C(SC(=S)N3CCN(C)CC3)[C@H](C)[C@H]12 | 1.53 | 6.25 (≈ 16.2 µM) | 1.56 (≈ 4.05 µM) | > 25 | 3.13 (≈ 8.12 µM) | 0.025 (≈ 0.0648 µM) | 3.13 (≈ 8.12 µM) | 6.25 (≈ 16.2 µM) | – | – | – | – | – | – | – | – | –
8 | C[C@@H](O)[C@H]1C(=O)N2C(C(=O)O)=C(SC(=S)N3CCCC3)[C@H](C)[C@H]12 | 3.18 | 12.5 (≈ 35.1 µM) | 6.25 (≈ 17.5 µM) | > 25 | 3.13 (≈ 8.78 µM) | 0.012 (≈ 0.0337 µM) | 3.13 (≈ 8.78 µM) | 6.25 (≈ 17.5 µM) | 0.06 | 3.18 | 95 | 5.6 (≈ 15.7 µM) | – | 6.24 | 4.04 (≈ 11.3 µM) | 1 | –
9 | C=CCN(CCCO)C(=S)SC1=C(C(=O)O)N2C(=O)[C@H]([C@@H](C)O)[C@H]2[C@H]1C | 1.39 | 6.25 (≈ 15.6 µM) | 12.5 (≈ 31.2 µM) | > 25 | – | 0.025 (≈ 0.0624 µM) | 3.13 (≈ 7.81 µM) | 3.13 (≈ 7.81 µM) | – | – | – | – | – | – | – | – | 3.13
10 | C[C@@H](O)[C@H]1C(=O)N2C(C(=O)O)=C(SC(=S)N(C)c3cccs3)[C@H](C)[C@H]12 | 2.05 | 3.13 (≈ 7.85 µM) | 12.5 (≈ 31.4 µM) | > 25 | 0.78 (≈ 1.96 µM) | < 0.006 | 1.56 (≈ 3.91 µM) | 3.13 (≈ 7.85 µM) | – | – | – | – | – | – | – | – | –
11 | C[C@@H](O)[C@H]1C(=O)N2C(C(=O)O)=C(SC(=S)N(C)C)[C@H](C)[C@H]12 | 2.12 | 12.5 (≈ 37.8 µM) | 6.25 (≈ 18.9 µM) | 25 (≈ 75.7 µM) | 6.25 (≈ 18.9 µM) | 0.012 (≈ 0.0363 µM) | 3.13 (≈ 9.47 µM) | 6.25 (≈ 18.9 µM) | 0.12 | 2.12 | 69 | 9.6 (≈ 29.1 µM) | 0 | 5.91 | 4.59 (≈ 13.9 µM) | – | –
12 | C[C@@H](O)[C@H]1C(=O)N2C(C(=O)O)=C(SC(=S)N3CCC3)[C@H](C)[C@H]12 | 3.03 | 6.25 (≈ 18.3 µM) | 3.13 (≈ 9.14 µM) | > 25 | 6.25 (≈ 18.3 µM) | 0.025 (≈ 0.073 µM) | 3.13 (≈ 9.14 µM) | 6.25 (≈ 18.3 µM) | – | – | – | – | – | – | – | – | –
